According to the supplement of paper PMC3937590:

Assays:
Assay in all cases: -log10 GI50 (growth inhibition 50%) (-log10(M)); higher = more potent growth inhibition
SUM185PE = test system: SUM185PE
How it was run: (§1)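 The reported figure is the negative logarithm of GI50, defined as the molar concentration that produces the set level of growth inhibition. The logarithm is base 10. It comes from a Gompertz curve fitted by nonlinear least squares to 72-hour luminescence data from breast cancer cell lines given nine doses in 1:5 serial dilution, in triplicate, with a time-zero plate as reference. A < qualifier marks values equal to the top dose.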

HCC2185 = test system: HCC2185
How it was run: as §1

HCC1954 = test system: HCC1954
How it was run: as §1

HCC1937 = test system: HCC1937
How it was run: as §1

HCC1143 = test system: HCC1143
How it was run: as §1

CAMA1 = test system: CAMA1
How it was run: as §1

MCF10A = test system: MCF10A
How it was run: as §1

BT20 = test system: BT20
How it was run: as §1

BT549 = test system: BT549
How it was run: as §1

HCC70 = test system: HCC70
How it was run: as §1

MCF10F = test system: MCF10F
How it was run: as §1

SUM52PE = test system: SUM52PE
How it was run: as §1

MDAMB415 = test system: MDAMB415
How it was run: as §1

ZR75B = test system: ZR75B
How it was run: as §1

MDAMB453 = test system: MDAMB453
How it was run: as §1

MDAMB231 = test system: MDAMB231
How it was run: as §1

184A1 = test system: 184A1
How it was run: as §1

HCC3153 = test system: HCC3153
How it was run: as §1

HCC1419 = test system: HCC1419
How it was run: as §1

T47D = test system: T47D
How it was run: as §1

ZR751 = test system: ZR751
How it was run: as §1

BT483 = test system: BT483
How it was run: as §1

HCC38 = test system: HCC38
How it was run: as §1

HCC1806 = test system: HCC1806
How it was run: as §1

MCF7 = test system: MCF7
How it was run: as §1

UACC812 = test system: UACC812
How it was run: as §1

MDAMB361 = test system: MDAMB361
How it was run: as §1

HCC202 = test system: HCC202
How it was run: as §1

SKBR3 = test system: SKBR3
How it was run: as §1

SUM1315MO2 = test system: SUM1315MO2
How it was run: as §1

HCC1395 = test system: HCC1395
How it was run: as §1

MX1 = test system: MX1
How it was run: as §1

184B5 = test system: 184B5
How it was run: as §1

MDAMB175VII = test system: MDAMB175VII
How it was run: as §1

SUM225CWN = test system: SUM225CWN
How it was run: as §1

MDAMB157 = test system: MDAMB157
How it was run: as §1

AU565 = test system: AU565
How it was run: as §1

SUM229PE = test system: SUM229PE
How it was run: as §1

HCC1569 = test system: HCC1569
How it was run: as §1

HCC1428 = test system: HCC1428
How it was run: as §1

HCC1187 = test system: HCC1187
How it was run: as §1

SUM159PT = test system: SUM159PT
How it was run: as §1

MDAMB134VI = test system: MDAMB134VI
How it was run: as §1

T47D_KBluc = test system: T47D_KBluc
How it was run: as §1

BT474 = test system: BT474
How it was run: as §1

HS578T = test system: HS578T
How it was run: as §1

600MPE = test system: 600MPE
How it was run: as §1

SUM149PT = test system: SUM149PT
How it was run: as §1

LY2 = test system: LY2
How it was run: as §1

MCF12A = test system: MCF12A
How it was run: as §1

## CS(=O)(=O)CCNCc1ccc(-c2ccc3ncnc(Nc4ccc(OCc5cccc(F)c5)c(Cl)c4)c3c2)o1 [Lapatinib]
SUM185PE
  -log10 GI50: < 4.78
HCC2185
  -log10 GI50: < 4.78
HCC1954
  -log10 GI50: 5.58
HCC1937
  -log10 GI50: < 4.78
HCC1143
  -log10 GI50: < 4.78
CAMA1
  -log10 GI50: < 4.78
MCF10A
  -log10 GI50: < 4.78
BT20
  -log10 GI50: < 4.78
BT549
  -log10 GI50: < 4.78
HCC70
  -log10 GI50: 5.4
MCF10F
  -log10 GI50: 4.94
SUM52PE
  -log10 GI50: < 4.78
MDAMB415
  -log10 GI50: < 4.78
ZR75B
  -log10 GI50: < 4.78
MDAMB453
  -log10 GI50: 5.29
MDAMB231
  -log10 GI50: < 4.78
184A1
  -log10 GI50: 5.86
HCC3153
  -log10 GI50: < 4.78
HCC1419
  -log10 GI50: 6.61
T47D
  -log10 GI50: 4.78
ZR751
  -log10 GI50: < 4.78
BT483
  -log10 GI50: < 4.78
HCC38
  -log10 GI50: < 4.78
HCC1806
  -log10 GI50: < 4.78
MCF7
  -log10 GI50: < 4.78
UACC812
  -log10 GI50: 6.34
MDAMB361
  -log10 GI50: 5.33
HCC202
  -log10 GI50: 6.12
SKBR3
  -log10 GI50: 6.39
SUM1315MO2
  -log10 GI50: 4.82
HCC1395
  -log10 GI50: < 4.78
MX1
  -log10 GI50: 5.27
184B5
  -log10 GI50: 5.24
MDAMB175VII
  -log10 GI50: 6.04
SUM225CWN
  -log10 GI50: 6.16
MDAMB157
  -log10 GI50: < 4.78
AU565
  -log10 GI50: 6.4
SUM229PE
  -log10 GI50: 4.86
HCC1569
  -log10 GI50: 5.47
HCC1428
  -log10 GI50: < 4.78
HCC1187
  -log10 GI50: < 4.78
SUM159PT
  -log10 GI50: < 4.78
MDAMB134VI
  -log10 GI50: < 4.78
T47D_KBluc
  -log10 GI50: < 4.78
BT474
  -log10 GI50: 6.4
HS578T
  -log10 GI50: < 4.78
600MPE
  -log10 GI50: < 4.78

## CC(C)C[C@@H](C=O)NC(=O)[C@H](CC(C)C)NC(=O)[C@H](CC(C)C)NC(=O)OCc1ccccc1 [MG-132]
SUM185PE
  -log10 GI50: 7.01
HCC2185
  -log10 GI50: 6.66
HCC1937
  -log10 GI50: 6.82
HCC1143
  -log10 GI50: 6.8
CAMA1
  -log10 GI50: 6.69
MCF10A
  -log10 GI50: 7.21
BT20
  -log10 GI50: 6.37
BT549
  -log10 GI50: 7.04
HCC70
  -log10 GI50: 7.19
MCF10F
  -log10 GI50: 7.14
SUM52PE
  -log10 GI50: 7.12
MDAMB415
  -log10 GI50: 7.08
ZR75B
  -log10 GI50: 6.4
MDAMB453
  -log10 GI50: 6.41
MDAMB231
  -log10 GI50: 6.59
184A1
  -log10 GI50: 7.73
HCC3153
  -log10 GI50: 6.84
HCC1419
  -log10 GI50: 6.8
T47D
  -log10 GI50: 6.97
ZR751
  -log10 GI50: 6.26
BT483
  -log10 GI50: 6.81
HCC38
  -log10 GI50: 6.6
HCC1806
  -log10 GI50: 6.5
MCF7
  -log10 GI50: 6.47
UACC812
  -log10 GI50: 6.72
MDAMB361
  -log10 GI50: 6.62
SKBR3
  -log10 GI50: 6.58
SUM1315MO2
  -log10 GI50: 6.92
SUM149PT
  -log10 GI50: 6.8
HCC1395
  -log10 GI50: 6.64
MX1
  -log10 GI50: 6.88
184B5
  -log10 GI50: 7.79
MDAMB175VII
  -log10 GI50: 6.66
SUM225CWN
  -log10 GI50: 7.01
MDAMB157
  -log10 GI50: 6.76
AU565
  -log10 GI50: 7.05
SUM229PE
  -log10 GI50: 6.98
HCC1569
  -log10 GI50: 6.68
HCC1428
  -log10 GI50: 6.46
HCC1187
  -log10 GI50: 7.1
SUM159PT
  -log10 GI50: 7.27
MDAMB134VI
  -log10 GI50: 6.63
T47D_KBluc
  -log10 GI50: 6.77
BT474
  -log10 GI50: 6.75
LY2
  -log10 GI50: 6.49
HS578T
  -log10 GI50: 6.64
MCF12A
  -log10 GI50: 7.32
600MPE
  -log10 GI50: 6.3

## CC[C@H](CO)Nc1nc(NCc2ccccc2O)c2ncn(C(C)C)c2n1 [Olomoucine II]
SUM185PE
  -log10 GI50: 5.98
HCC2185
  -log10 GI50: 5.11
HCC1954
  -log10 GI50: 4.95
HCC1937
  -log10 GI50: 5.2
HCC1143
  -log10 GI50: 5.51
CAMA1
  -log10 GI50: 5.3
MCF10A
  -log10 GI50: 5.51
BT20
  -log10 GI50: 5.43
BT549
  -log10 GI50: 5.66
HCC70
  -log10 GI50: 5.47
MCF10F
  -log10 GI50: 5.03
SUM52PE
  -log10 GI50: 5.19
MDAMB415
  -log10 GI50: 5.32
ZR75B
  -log10 GI50: 5.23
MDAMB453
  -log10 GI50: 5.31
MDAMB231
  -log10 GI50: 5.17
184A1
  -log10 GI50: 5.5
HCC3153
  -log10 GI50: 5.51
HCC1419
  -log10 GI50: 5.36
T47D
  -log10 GI50: 5.18
ZR751
  -log10 GI50: 5.21
BT483
  -log10 GI50: 5.24
HCC38
  -log10 GI50: 5.53
HCC1806
  -log10 GI50: 5.06
MCF7
  -log10 GI50: 5.23
UACC812
  -log10 GI50: 5.19
MDAMB361
  -log10 GI50: 5.01
SKBR3
  -log10 GI50: 4.96
SUM1315MO2
  -log10 GI50: 5.47
SUM149PT
  -log10 GI50: 5.18
HCC1395
  -log10 GI50: 5.72
MX1
  -log10 GI50: 5.24
184B5
  -log10 GI50: 5.53
MDAMB175VII
  -log10 GI50: 5.14
SUM225CWN
  -log10 GI50: 5.28
MDAMB157
  -log10 GI50: 5.23
AU565
  -log10 GI50: 5.33
SUM229PE
  -log10 GI50: 5.13
HCC1569
  -log10 GI50: 5.28
HCC1428
  -log10 GI50: 5.29
HCC1187
  -log10 GI50: 5.18
SUM159PT
  -log10 GI50: 5.32
MDAMB134VI
  -log10 GI50: 5.23
BT474
  -log10 GI50: 5.2
LY2
  -log10 GI50: 5.46
HS578T
  -log10 GI50: 5.18
MCF12A
  -log10 GI50: 5.22
600MPE
  -log10 GI50: 5.23
